Laboratory results from US9695159B2, “Process for preparation of canagliflozin” (Glenmark Pharmaceuticals Limited, priority 2014, dated 2017).
Values belong to the compound of their own block, whether it stands above or below them.

Experiment: Hygroscopic study: water content by KF and description after exposure to 25° C./60% RH and 25° C./90% RH
Type: physicochemical
Description: Method for Measuring the Water Content
About 10 g canagliflozin was exposed to 25° C. and 60% relative humidity and 25° C. and 90% relative humidity conditions. About 300 mg of sample was withdrawn each time at the timely intervals of 1 hr, 2 hrs, 4 hrs, 8 hrs, 12 hrs, 24 hrs and 48 hrs from the conditions and tested for description and water content by KF. The water content was calculated by the following formula: […]
Results of Hygroscopic Study for Canagliflozin Obtained as Per Example 16

increase of moisture content (exposed for 48 hours to 25° C. and 60% relative humidity): ≤ 0.4%
increase of moisture content (exposed for 48 hours to 25° C. and 90% relative humidity): ≤ 0.4%
Compound: Cc1ccc([C@@H]2O[C@H](CO)[C@@H](O)[C@H](O)[C@H]2O)cc1Cc1ccc(-c2ccc(F)cc2)s1 [amorphous canagliflozin, 1(S)-1,5-anhydro-1-[3[[5-(4-fluorophenyl)-2-thienyl]methyl]-4-methylphenyl]-D-glucitol]

Description (25° C./60% RH, 1 hr): Off white
Moisture content by KF (%) (25° C./60% RH, 1 hr): 2.22%
Description (25° C./60% RH, 2 hrs): Off white
Moisture content by KF (%) (25° C./60% RH, 2 hrs): 2.29%
Description (25° C./60% RH, 4 hrs): Off white
Moisture content by KF (%) (25° C./60% RH, 4 hrs): 2.33%
Description (25° C./60% RH, 8 hrs): Off white
Moisture content by KF (%) (25° C./60% RH, 8 hrs): 2.35%
Description (25° C./60% RH, 12 hrs): Off white
Moisture content by KF (%) (25° C./60% RH, 12 hrs): 2.39%
Description (25° C./60% RH, 24 hrs): Off white
Moisture content by KF (%) (25° C./60% RH, 24 hrs): 2.42%
Description (25° C./60% RH, 48 hrs): Off white
Moisture content by KF (%) (25° C./60% RH, 48 hrs): 2.49%
Description (25° C./60% RH, Initial): Off white
Moisture content by KF (%) (25° C./60% RH, Initial): 2.19%
Description (25° C./90% RH, 1 hr): Off white
Moisture content by KF (%) (25° C./90% RH, 1 hr): 2.36%
Description (25° C./90% RH, 2 hrs): Off white
Moisture content by KF (%) (25° C./90% RH, 2 hrs): 2.48%
Description (25° C./90% RH, 4 hrs): Off white
Moisture content by KF (%) (25° C./90% RH, 4 hrs): 2.52%
Description (25° C./90% RH, 8 hrs): Off white
Moisture content by KF (%) (25° C./90% RH, 8 hrs): 2.69%
Description (25° C./90% RH, 12 hrs): Off white
Moisture content by KF (%) (25° C./90% RH, 12 hrs): 2.87%
Description (25° C./90% RH, 24 hrs): Off white
Moisture content by KF (%) (25° C./90% RH, 24 hrs): 3.17%
Description (25° C./90% RH, 48 hrs): Off white
Moisture content by KF (%) (25° C./90% RH, 48 hrs): 3.48%
Description (25° C./90% RH, Initial): Off white
Moisture content by KF (%) (25° C./90% RH, Initial): 2.19%
Compound: Cc1ccc([C@@H]2O[C@H](CO)[C@@H](O)[C@H](O)[C@H]2O)cc1Cc1ccc(-c2ccc(F)cc2)s1 [Canagliflozin, 1(S)-1,5-anhydro-1-[3[[5-(4-fluorophenyl)-2-thienyl]methyl]-4-methylphenyl]-D-glucitol]
